Data from PubChem BioAssay AID256 (DTP/NCI, 2004).
Where “and” joins values, the source holds several entries; their conditions need not be identical. Identical values can stand only once. Inconclusive results and toxic doses are left out.

Tested on: CD2F1 mice, L1210 leukemia ip, survival T/C
Assay: NCI In Vivo Anticancer Drug Screen. Data for tumor model L1210 Leukemia (intraperitoneal) in CD2F1 (CDF1) mice
Conditions: endpoint: mean survival time, higher = longer survival
Summary of the method: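 Mice carrying a transplanted tumor received test compound or vehicle alone. The value is the measurement in the treated group divided by that in the vehicle-treated control group.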

[1] = dose: 100.0 mg/kg/injection, schedule: Q01DX001 (ip), vehicle: saline with Tween-80
[2] = dose: 100.0 mg/kg/injection, schedule: Q04DX003 (ip), vehicle: saline with Tween-80
[3] = dose: 200.0 mg/kg/injection, schedule: Q01DX001 (ip), vehicle: saline with Tween-80
[4] = dose: 200.0 mg/kg/injection, schedule: Q04DX003 (ip), vehicle: saline with Tween-80
[5] = dose: 400.0 mg/kg/injection, schedule: Q04DX003 (ip), vehicle: saline with Tween-80
[6] = dose: 100.0 mg/kg/injection, schedule: Q01DX009 (ip), vehicle: saline with Tween-80
[7] = dose: 25.0 mg/kg/injection, schedule: Q01DX009 (ip), vehicle: saline with Tween-80
[8] = dose: 50.0 mg/kg/injection, schedule: Q01DX009 (ip), vehicle: saline with Tween-80
[9] = dose: 200.0 mg/kg/injection, schedule: Q01DX009 (ip), vehicle: saline with Tween-80
[10] = dose: 25.0 mg/kg/injection, schedule: Q01DX009 (ip), vehicle: saline
[11] = dose: 400.0 mg/kg/injection, schedule: Q01DX009 (ip), vehicle: saline with Tween-80
[12] = dose: 200.0 mg/kg/injection, schedule: Q01DX009 (ip), vehicle: other
[13] = dose: 400.0 mg/kg/injection, schedule: Q01DX009 (ip), vehicle: other
[14] = dose: 100.0 mg/kg/injection, schedule: Q01DX009 (ip), vehicle: saline
[15] = dose: 100.0 mg/kg/injection, schedule: Q04DX003 (ip), vehicle: saline
[16] = dose: 200.0 mg/kg/injection, schedule: Q01DX009 (ip), vehicle: saline
[17] = dose: 200.0 mg/kg/injection, schedule: Q04DX003 (ip), vehicle: saline
[18] = dose: 400.0 mg/kg/injection, schedule: Q01DX009 (ip), vehicle: saline
[19] = dose: 400.0 mg/kg/injection, schedule: Q04DX003 (ip), vehicle: saline
[20] = dose: 400.0 mg/kg/injection, schedule: Q01DX001 (ip), vehicle: saline with Tween-80

## O=C(NCCS)Nc1ccccc1
[1]
  T/C: 102 % of control
dose: 100.0 mg/kg/injection, schedule: Q04DX002 (ip), vehicle: saline with Tween-80
  T/C: 104 % of control
[2]
  T/C: 94 % of control
[3]
  T/C: 98 % of control
dose: 200.0 mg/kg/injection, schedule: Q04DX002 (ip), vehicle: saline with Tween-80
  T/C: 96 % of control
[4]
  T/C: 86 % of control and 91 % of control
dose: 400.0 mg/kg/injection, schedule: Q04DX002 (ip), vehicle: saline with Tween-80
  T/C: 96 % of control
[5]
  T/C: 86 % of control and 92 % of control

## C[N+]1(C)CCC(=O)CC1
[6]
  T/C: 101 % of control

## CC12CCC(O1)C1C(=O)NC(=O)C12 (stereo not given)
[2]
  T/C: 94 % of control
[4]
  T/C: 89 % of control
[5]
  T/C: 98 % of control

## COc1ccccc1[As](=O)(O)CC(O)COc1ccccc1 (stereo not given)
dose: 6.25 mg/kg/injection, schedule: Q04DX003 (ip), vehicle: saline with Tween-80
  T/C: 103 % of control
dose: 12.5 mg/kg/injection, schedule: Q04DX003 (ip), vehicle: saline with Tween-80
  T/C: 104 % of control
dose: 25.0 mg/kg/injection, schedule: Q04DX003 (ip), vehicle: saline with Tween-80
  T/C: 113 % of control

## COc1cc(Cl)ccc1C
dose: 12.5 mg/kg/injection, schedule: Q01DX009 (ip), vehicle: saline with Tween-80
  T/C: 97 % of control
[7]
  T/C: 97 % of control
[8]
  T/C: 95 % of control
[6]
  T/C: 100 % of control
[9]
  T/C: 91 % of control

## O=C1CSC(=O)N1 (tested in a mixture with another compound)
dose: 100.0 mg/kg/injection, schedule: Q01DX001 (ip), vehicle: saline
  T/C: 96 % of control
dose: 200.0 mg/kg/injection, schedule: Q01DX001 (ip), vehicle: saline
  T/C: 96 % of control
dose: 400.0 mg/kg/injection, schedule: Q01DX001 (ip), vehicle: saline
  T/C: 107 % of control

## COC(=O)c1cc(Cl)c(C(=O)OC)cc1Cl
dose: 100.0 mg/kg/injection, schedule: Q01DX009 (ip), vehicle: Klucel (hydroxypropylcellulose) (HPC)
  T/C: 92 % of control
dose: 200.0 mg/kg/injection, schedule: Q01DX009 (ip), vehicle: Klucel (hydroxypropylcellulose) (HPC)
  T/C: 97 % of control
dose: 400.0 mg/kg/injection, schedule: Q01DX009 (ip), vehicle: Klucel (hydroxypropylcellulose) (HPC)
  T/C: 102 % of control

## CC1CCCN(N=Nc2ccccc2-c2nc(N)c3ccccc3n2)C1 (stereo not given)
dose: 100.0 mg/kg/injection, schedule: Q04DX002 (ip), vehicle: Klucel (hydroxypropylcellulose) (HPC)
  T/C: 88 % of control
dose: 200.0 mg/kg/injection, schedule: Q04DX002 (ip), vehicle: Klucel (hydroxypropylcellulose) (HPC)
  T/C: 92 % of control
dose: 400.0 mg/kg/injection, schedule: Q04DX002 (ip), vehicle: Klucel (hydroxypropylcellulose) (HPC)
  T/C: 95 % of control

## Cc1ccc(C#CP(C#Cc2ccc(C)cc2)C#Cc2ccc(C)cc2)cc1
dose: 1.56 mg/kg/injection, schedule: Q01DX009 (ip), vehicle: saline with Tween-80
  T/C: 92 % of control
dose: 3.12 mg/kg/injection, schedule: Q01DX009 (ip), vehicle: saline with Tween-80
  T/C: 96 % of control
dose: 6.25 mg/kg/injection, schedule: Q01DX009 (ip), vehicle: saline
  T/C: 96 % of control
[10]
  T/C: 96 % of control

## O=C(CCCCC(=O)N/N=C/c1cccc([N+](=O)[O-])c1)N/N=C/c1cccc([N+](=O)[O-])c1
[6]
  T/C: 87 % of control
[9]
  T/C: 87 % of control
[11]
  T/C: 90 % of control

## O=C(O)c1ccc(C(=O)O)c(C(=O)O)c1.[NH-]C1CCCCCC1[NH-].[Pt+2]
dose: 3.75 mg/kg/injection, schedule: Q04DX003 (ip), vehicle: sodium bicarbonate
  T/C: 159 % of control
dose: 7.5 mg/kg/injection, schedule: Q04DX003 (ip), vehicle: sodium bicarbonate
  T/C: 156 % of control and 250 % of control
dose: 15.0 mg/kg/injection, schedule: Q04DX003 (ip), vehicle: sodium bicarbonate
  T/C: 200 % of control and 219 % of control
dose: 30.0 mg/kg/injection, schedule: Q04DX003 (ip), vehicle: sodium bicarbonate
  T/C: 105 % of control

## CCCCNC(C)(C)C(SS)c1cccs1 (stereo not given)
dose: 66.0 mg/kg/injection, schedule: Q01DX009 (ip), vehicle: other
  T/C: 101 % of control
dose: 150.0 mg/kg/injection, schedule: Q01DX009 (ip), vehicle: other
  T/C: 108 % of control
[12]
  T/C: 94 % of control
[13]
  T/C: 92 % of control

## O=S(=O)(O)NC1CCCCC1
[10]
  T/C: 96 % of control
dose: 50.0 mg/kg/injection, schedule: Q01DX009 (ip), vehicle: saline
  T/C: 95 % of control
[14]
  T/C: 91 % of control and 93 % of control

## COC(=O)C1CCCC(=O)C1C(=O)OC (stereo not given)
dose: 100.0 mg/kg/injection, schedule: Q01DX009 (ip), vehicle: other
  T/C: 95 % of control
[12]
  T/C: 101 % of control
[13]
  T/C: 92 % of control

## CC(S)CN (stereo not given)
[14]
  T/C: 96 % of control
[15]
  T/C: 101 % of control
[16]
  T/C: 94 % of control
[17]
  T/C: 98 % of control
[18]
  T/C: 101 % of control
[19]
  T/C: 104 % of control

## C1CC1C(=NN=C(C1CC1)C1CC1)C1CC1
[7]
  T/C: 97 % of control
[8]
  T/C: 101 % of control
[2]
  T/C: 86 % of control

## COc1ccc2cc(OC)c(OC)cc2n1
[1]
  T/C: 96 % of control
[3]
  T/C: 96 % of control
[20]
  T/C: 98 % of control

## O=C(O)COc1ccc(NC(=O)COc2ccccc2)cc1
dose: 25.0 mg/kg/injection, schedule: Q01DX001 (ip), vehicle: saline with Tween-80
  T/C: 100 % of control
dose: 50.0 mg/kg/injection, schedule: Q01DX001 (ip), vehicle: saline with Tween-80
  T/C: 97 % of control
[1]
  T/C: 100 % of control

## CCOC(=O)C(=CC(C(=O)OCC)C(=O)OCC)C(=O)OCC
[1]
  T/C: 93 % of control
[3]
  T/C: 104 % of control
[20]
  T/C: 96 % of control

## O=S(=O)(/C=C(/Br)c1ccccc1)c1ccccc1
[14]
  T/C: 96 % of control
[15]
  T/C: 100 % of control
[16]
  T/C: 91 % of control
[17]
  T/C: 100 % of control
[18]
  T/C: 90 % of control
[19]
  T/C: 100 % of control

## CC(C)(C)N1CC2C(c3ccccc3)NNC2(O)C1=O (stereo not given)
[6]
  T/C: 109 % of control
[9]
  T/C: 113 % of control
[11]
  T/C: 105 % of control

## O=C(Nc1ccccc1Cl)c1ccccc1CC(O)(c1ccccc1)c1ccccc1
dose: 100.0 mg/kg/injection, schedule: Q01DX001 (ip), vehicle: saline sonified
  T/C: 102 % of control
dose: 200.0 mg/kg/injection, schedule: Q01DX001 (ip), vehicle: saline sonified
  T/C: 109 % of control
dose: 400.0 mg/kg/injection, schedule: Q01DX001 (ip), vehicle: saline sonified
  T/C: 86 % of control

## [O]=[Mo]
[15]
  T/C: 107 % of control

## COc1cc(C)ccc1C1=CCCCCC1
[15]
  T/C: 93 % of control
[17]
  T/C: 93 % of control
[19]
  T/C: 103 % of control

## CC(=O)C(C(C)=O)C(c1cccnc1)C(C(C)=O)C(C)=O
[1]
  T/C: 104 % of control
[3]
  T/C: 107 % of control
[20]
  T/C: 98 % of control

## CN(Cc1ccccc1)Cc1ccccc1
dose: 100.0 mg/kg/injection, schedule: Q04DX002 (ip), vehicle: saline
  T/C: 100 % of control
dose: 200.0 mg/kg/injection, schedule: Q04DX002 (ip), vehicle: saline
  T/C: 94 % of control

## Cc1ccc(C)c(C(=O)c2ccccc2C(N)=O)c1
[8]
  T/C: 94 % of control
[6]
  T/C: 92 % of control
[9]
  T/C: 88 % of control

## O=C(COc1cccc(Cl)c1)NCc1ccccc1NC(=O)CBr
dose: 2.35 mg/kg/injection, schedule: Q01DX001 (ip), vehicle: saline with Tween-80
  T/C: 101 % of control
dose: 4.7 mg/kg/injection, schedule: Q01DX001 (ip), vehicle: saline with Tween-80
  T/C: 97 % of control
dose: 9.4 mg/kg/injection, schedule: Q01DX001 (ip), vehicle: saline with Tween-80
  T/C: 92 % of control
